According to the supplement of paper PMC10307832:

Tests used:
Experiment in all cases: relative viability (nuclei count vs DMSO), 5 days (fraction); higher = more cells survive
Metformin + Pictilisib = compound: CN(C)C(=N)NC(=N)N [Metformin] + CS(=O)(=O)N1CCN(Cc2cc3nc(-c4cccc5[nH]ncc45)nc(N4CCOCC4)c3s2)CC1 [Pictilisib] (partner 1 µM)
Procedure, shortened: (§1)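 Each reported value is a median over duplicate plates. It expresses relative viability: treated-well nuclei count divided by vehicle-well nuclei count. Lung cancer cell lines in 1536-well plates were dosed by pin tool a day after seeding, alone with one drug or with a fixed anchor-drug dose plus five library-drug doses (not always all listed) in √10 steps, and nuclei were counted after 5 days.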

Metformin + Linsitinib = compound: CN(C)C(=N)NC(=N)N [Metformin] + C[C@]1(O)C[C@@H](c2nc(-c3ccc4ccc(-c5ccccc5)nc4c3)c3c(N)nccn32)C1 [Linsitinib] (partner 1 µM)
Procedure, shortened: as §1

Metformin + OSI-027 = compound: CN(C)C(=N)NC(=N)N [Metformin] + COc1cccc2cc(-c3nc([C@H]4CC[C@H](C(=O)O)CC4)n4ncnc(N)c34)[nH]c12 [OSI-027] (partner 0.5 µM)
Procedure, shortened: as §1

Metformin + Tozasertib = compound: CN(C)C(=N)NC(=N)N [Metformin] + Cc1cc(Nc2cc(N3CCN(C)CC3)nc(Sc3ccc(NC(=O)C4CC4)cc3)n2)n[nH]1 [Tozasertib] (partner 0.1 µM)
Procedure, shortened: as §1

NCI-H1299
relative viability (Metformin + Pictilisib; first compound 10 µM): 0.834
relative viability (Metformin + Pictilisib; first compound 31.62 µM): 0.98
relative viability (Metformin + Pictilisib; first compound 100 µM): 0.9
relative viability (Metformin + Pictilisib; first compound 316.23 µM): 0.645
relative viability (Metformin + Pictilisib; first compound 1000 µM): 0.479
relative viability (Metformin + Linsitinib; first compound 10 µM): 1.03
relative viability (Metformin + Linsitinib; first compound 31.62 µM): 1.04
relative viability (Metformin + Linsitinib; first compound 100 µM): 1
relative viability (Metformin + Linsitinib; first compound 316.23 µM): 0.958
relative viability (Metformin + Linsitinib; first compound 1000 µM): 0.974

LCLC-97TM1
relative viability (Metformin + Pictilisib; first compound 10 µM): 0.257
relative viability (Metformin + Pictilisib; first compound 31.62 µM): 0.196
relative viability (Metformin + Pictilisib; first compound 100 µM): 0.255
relative viability (Metformin + Pictilisib; first compound 316.23 µM): 0.234
relative viability (Metformin + Pictilisib; first compound 1000 µM): 0.223
relative viability (Metformin + Linsitinib; first compound 10 µM): 0.175
relative viability (Metformin + Linsitinib; first compound 31.62 µM): 0.17
relative viability (Metformin + Linsitinib; first compound 100 µM): 0.146
relative viability (Metformin + Linsitinib; first compound 316.23 µM): 0.187
relative viability (Metformin + Linsitinib; first compound 1000 µM): 0.243
relative viability (Metformin + OSI-027; first compound 10 µM): 0.647
relative viability (Metformin + OSI-027; first compound 31.62 µM): 0.58
relative viability (Metformin + OSI-027; first compound 100 µM): 0.537
relative viability (Metformin + OSI-027; first compound 316.23 µM): 0.487
relative viability (Metformin + OSI-027; first compound 1000 µM): 0.711
relative viability (Metformin + Tozasertib; first compound 10 µM): 0.18
relative viability (Metformin + Tozasertib; first compound 31.62 µM): 0.212
relative viability (Metformin + Tozasertib; first compound 100 µM): 0.212
relative viability (Metformin + Tozasertib; first compound 316.23 µM): 0.241
relative viability (Metformin + Tozasertib; first compound 1000 µM): 0.231

NCI-H1993
relative viability (Metformin + Pictilisib; first compound 10 µM): 0.672
relative viability (Metformin + Pictilisib; first compound 31.62 µM): 0.783
relative viability (Metformin + Pictilisib; first compound 100 µM): 0.778
relative viability (Metformin + Pictilisib; first compound 316.23 µM): 0.699
relative viability (Metformin + Pictilisib; first compound 1000 µM): 0.747
relative viability (Metformin + Linsitinib; first compound 10 µM): 0.719
relative viability (Metformin + Linsitinib; first compound 31.62 µM): 0.73
relative viability (Metformin + Linsitinib; first compound 100 µM): 0.838
relative viability (Metformin + Linsitinib; first compound 316.23 µM): 0.686
relative viability (Metformin + Linsitinib; first compound 1000 µM): 0.705
relative viability (Metformin + OSI-027; first compound 10 µM): 0.587
relative viability (Metformin + OSI-027; first compound 31.62 µM): 0.603
relative viability (Metformin + OSI-027; first compound 100 µM): 0.554
relative viability (Metformin + OSI-027; first compound 316.23 µM): 0.507
relative viability (Metformin + OSI-027; first compound 1000 µM): 0.514
relative viability (Metformin + Tozasertib; first compound 10 µM): 0.622
relative viability (Metformin + Tozasertib; first compound 31.62 µM): 0.551
relative viability (Metformin + Tozasertib; first compound 100 µM): 0.609
relative viability (Metformin + Tozasertib; first compound 316.23 µM): 0.571
relative viability (Metformin + Tozasertib; first compound 1000 µM): 0.596

PC-3 [JPC-3]
relative viability (Metformin + Pictilisib; first compound 10 µM): 0.773
relative viability (Metformin + Pictilisib; first compound 31.62 µM): 0.728
relative viability (Metformin + Pictilisib; first compound 100 µM): 0.771
relative viability (Metformin + Pictilisib; first compound 316.23 µM): 0.751
relative viability (Metformin + Pictilisib; first compound 1000 µM): 0.709
relative viability (Metformin + Linsitinib; first compound 10 µM): 0.895
relative viability (Metformin + Linsitinib; first compound 31.62 µM): 1.01
relative viability (Metformin + Linsitinib; first compound 100 µM): 0.902
relative viability (Metformin + Linsitinib; first compound 316.23 µM): 0.918
relative viability (Metformin + Linsitinib; first compound 1000 µM): 0.942
relative viability (Metformin + OSI-027; first compound 10 µM): 0.599
relative viability (Metformin + OSI-027; first compound 31.62 µM): 0.635
relative viability (Metformin + OSI-027; first compound 100 µM): 0.638
relative viability (Metformin + OSI-027; first compound 316.23 µM): 0.615
relative viability (Metformin + OSI-027; first compound 1000 µM): 0.722
relative viability (Metformin + Tozasertib; first compound 10 µM): 0.772
relative viability (Metformin + Tozasertib; first compound 31.62 µM): 0.811
relative viability (Metformin + Tozasertib; first compound 100 µM): 0.853
relative viability (Metformin + Tozasertib; first compound 316.23 µM): 0.779
relative viability (Metformin + Tozasertib; first compound 1000 µM): 0.825

NCI-H441
relative viability (Metformin + Pictilisib; first compound 10 µM): 0.527
relative viability (Metformin + Pictilisib; first compound 100 µM): 0.499
relative viability (Metformin + Pictilisib; first compound 316.23 µM): 0.394
relative viability (Metformin + Pictilisib; first compound 1000 µM): 0.589
relative viability (Metformin + Linsitinib; first compound 10 µM): 0.432
relative viability (Metformin + Linsitinib; first compound 100 µM): 0.536
relative viability (Metformin + Linsitinib; first compound 316.23 µM): 0.478
relative viability (Metformin + Linsitinib; first compound 1000 µM): 0.605
relative viability (Metformin + OSI-027; first compound 31.62 µM): 0.665
relative viability (Metformin + OSI-027; first compound 100 µM): 0.519
relative viability (Metformin + OSI-027; first compound 316.23 µM): 0.393
relative viability (Metformin + OSI-027; first compound 1000 µM): 0.46
relative viability (Metformin + Tozasertib; first compound 31.62 µM): 0.448
relative viability (Metformin + Tozasertib; first compound 100 µM): 0.511
relative viability (Metformin + Tozasertib; first compound 316.23 µM): 0.438
relative viability (Metformin + Tozasertib; first compound 1000 µM): 0.587

NCI-H322M
relative viability (Metformin + Pictilisib; first compound 10 µM): 0.471
relative viability (Metformin + Pictilisib; first compound 31.62 µM): 0.52
relative viability (Metformin + Pictilisib; first compound 100 µM): 0.491
relative viability (Metformin + Pictilisib; first compound 316.23 µM): 0.469
relative viability (Metformin + Pictilisib; first compound 1000 µM): 0.43
relative viability (Metformin + Linsitinib; first compound 10 µM): 1.04
relative viability (Metformin + Linsitinib; first compound 31.62 µM): 0.954
relative viability (Metformin + Linsitinib; first compound 100 µM): 0.934
relative viability (Metformin + Linsitinib; first compound 316.23 µM): 0.864
relative viability (Metformin + Linsitinib; first compound 1000 µM): 0.915
relative viability (Metformin + OSI-027; first compound 10 µM): 0.54
relative viability (Metformin + OSI-027; first compound 31.62 µM): 0.597
relative viability (Metformin + OSI-027; first compound 100 µM): 0.604
relative viability (Metformin + OSI-027; first compound 316.23 µM): 0.457
relative viability (Metformin + OSI-027; first compound 1000 µM): 0.46
relative viability (Metformin + Tozasertib; first compound 10 µM): 0.48
relative viability (Metformin + Tozasertib; first compound 31.62 µM): 0.454
relative viability (Metformin + Tozasertib; first compound 100 µM): 0.437
relative viability (Metformin + Tozasertib; first compound 316.23 µM): 0.432
relative viability (Metformin + Tozasertib; first compound 1000 µM): 0.419

NCI-H1651
relative viability (Metformin + Pictilisib; first compound 10 µM): 0.762
relative viability (Metformin + Pictilisib; first compound 31.62 µM): 0.887
relative viability (Metformin + Pictilisib; first compound 100 µM): 0.674
relative viability (Metformin + Pictilisib; first compound 316.23 µM): 0.883
relative viability (Metformin + Pictilisib; first compound 1000 µM): 0.876
relative viability (Metformin + Linsitinib; first compound 10 µM): 1.3
relative viability (Metformin + Linsitinib; first compound 31.62 µM): 1.23
relative viability (Metformin + Linsitinib; first compound 100 µM): 1.35
relative viability (Metformin + Linsitinib; first compound 316.23 µM): 1.21
relative viability (Metformin + Linsitinib; first compound 1000 µM): 1.43
relative viability (Metformin + OSI-027; first compound 10 µM): 0.904
relative viability (Metformin + OSI-027; first compound 31.62 µM): 1.02
relative viability (Metformin + OSI-027; first compound 100 µM): 1.03
relative viability (Metformin + OSI-027; first compound 316.23 µM): 0.954
relative viability (Metformin + OSI-027; first compound 1000 µM): 1.1
relative viability (Metformin + Tozasertib; first compound 10 µM): 0.751
relative viability (Metformin + Tozasertib; first compound 31.62 µM): 0.847
relative viability (Metformin + Tozasertib; first compound 100 µM): 0.86
relative viability (Metformin + Tozasertib; first compound 316.23 µM): 0.728
relative viability (Metformin + Tozasertib; first compound 1000 µM): 0.976

EKVX
relative viability (Metformin + Pictilisib; first compound 10 µM): 0.404
relative viability (Metformin + Pictilisib; first compound 31.62 µM): 0.392
relative viability (Metformin + Pictilisib; first compound 100 µM): 0.453
relative viability (Metformin + Pictilisib; first compound 316.23 µM): 0.414
relative viability (Metformin + Pictilisib; first compound 1000 µM): 0.392
relative viability (Metformin + Linsitinib; first compound 10 µM): 0.739
relative viability (Metformin + Linsitinib; first compound 31.62 µM): 0.969
relative viability (Metformin + Linsitinib; first compound 100 µM): 1.04
relative viability (Metformin + Linsitinib; first compound 316.23 µM): 0.861
relative viability (Metformin + Linsitinib; first compound 1000 µM): 0.9
relative viability (Metformin + OSI-027; first compound 10 µM): 0.623
relative viability (Metformin + OSI-027; first compound 31.62 µM): 0.77
relative viability (Metformin + OSI-027; first compound 100 µM): 0.645
relative viability (Metformin + OSI-027; first compound 1000 µM): 0.681
relative viability (Metformin + Tozasertib; first compound 10 µM): 0.337
relative viability (Metformin + Tozasertib; first compound 31.62 µM): 0.519
relative viability (Metformin + Tozasertib; first compound 100 µM): 0.443
relative viability (Metformin + Tozasertib; first compound 1000 µM): 0.391

CAL-12T
relative viability (Metformin + Pictilisib; first compound 10 µM): 0.423
relative viability (Metformin + Pictilisib; first compound 31.62 µM): 0.511
relative viability (Metformin + Pictilisib; first compound 100 µM): 0.527
relative viability (Metformin + Pictilisib; first compound 316.23 µM): 0.415
relative viability (Metformin + Pictilisib; first compound 1000 µM): 0.518
relative viability (Metformin + Linsitinib; first compound 10 µM): 0.818
relative viability (Metformin + Linsitinib; first compound 31.62 µM): 0.81
relative viability (Metformin + Linsitinib; first compound 100 µM): 0.824
relative viability (Metformin + Linsitinib; first compound 316.23 µM): 0.691
relative viability (Metformin + Linsitinib; first compound 1000 µM): 0.759
relative viability (Metformin + OSI-027; first compound 10 µM): 0.678
relative viability (Metformin + OSI-027; first compound 31.62 µM): 0.94
relative viability (Metformin + OSI-027; first compound 100 µM): 0.581
relative viability (Metformin + OSI-027; first compound 316.23 µM): 0.39
relative viability (Metformin + OSI-027; first compound 1000 µM): 0.605
relative viability (Metformin + Tozasertib; first compound 10 µM): 0.437
relative viability (Metformin + Tozasertib; first compound 31.62 µM): 0.388
relative viability (Metformin + Tozasertib; first compound 100 µM): 0.408
relative viability (Metformin + Tozasertib; first compound 316.23 µM): 0.363
relative viability (Metformin + Tozasertib; first compound 1000 µM): 0.35
